Source: patent US20250129067A1 (Progentos Therapeutics, Inc., priority 2021, published 2025)

Assays:
[1] = system: Oligodendrocyte progenitor cells (OPCs); test: In vitro OPC differentiation assay, GPR17 expression (immunocytochemistry); conditions: 3 μM (10× concentration, final 0.3 μM); 72 hours; fold change over vehicle
PDGFRα = PDGFRα (Homo sapiens (Human), UniProt P16234); test: PDGFRα kinase enzyme assay (Promega PDGFRα Kinase Enzyme System, ADP-Glo); format: biochemical; conditions: 11-point dose response, 10,000 nM to 0.169 nM; 150 uM ATP; BLQ = below limit of quantitation; read-out: IC50 Values on PDGFRα Kinase Inhibition, IC50
Outline: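 Purified PDGFRα protein (20 ng) reacted with test compound per the Promega kinase system protocol. ADP formed was measured by ADP-Glo luminescence against a standard curve, giving IC50.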

Sequence of PDGFRα (P16234 24-1089): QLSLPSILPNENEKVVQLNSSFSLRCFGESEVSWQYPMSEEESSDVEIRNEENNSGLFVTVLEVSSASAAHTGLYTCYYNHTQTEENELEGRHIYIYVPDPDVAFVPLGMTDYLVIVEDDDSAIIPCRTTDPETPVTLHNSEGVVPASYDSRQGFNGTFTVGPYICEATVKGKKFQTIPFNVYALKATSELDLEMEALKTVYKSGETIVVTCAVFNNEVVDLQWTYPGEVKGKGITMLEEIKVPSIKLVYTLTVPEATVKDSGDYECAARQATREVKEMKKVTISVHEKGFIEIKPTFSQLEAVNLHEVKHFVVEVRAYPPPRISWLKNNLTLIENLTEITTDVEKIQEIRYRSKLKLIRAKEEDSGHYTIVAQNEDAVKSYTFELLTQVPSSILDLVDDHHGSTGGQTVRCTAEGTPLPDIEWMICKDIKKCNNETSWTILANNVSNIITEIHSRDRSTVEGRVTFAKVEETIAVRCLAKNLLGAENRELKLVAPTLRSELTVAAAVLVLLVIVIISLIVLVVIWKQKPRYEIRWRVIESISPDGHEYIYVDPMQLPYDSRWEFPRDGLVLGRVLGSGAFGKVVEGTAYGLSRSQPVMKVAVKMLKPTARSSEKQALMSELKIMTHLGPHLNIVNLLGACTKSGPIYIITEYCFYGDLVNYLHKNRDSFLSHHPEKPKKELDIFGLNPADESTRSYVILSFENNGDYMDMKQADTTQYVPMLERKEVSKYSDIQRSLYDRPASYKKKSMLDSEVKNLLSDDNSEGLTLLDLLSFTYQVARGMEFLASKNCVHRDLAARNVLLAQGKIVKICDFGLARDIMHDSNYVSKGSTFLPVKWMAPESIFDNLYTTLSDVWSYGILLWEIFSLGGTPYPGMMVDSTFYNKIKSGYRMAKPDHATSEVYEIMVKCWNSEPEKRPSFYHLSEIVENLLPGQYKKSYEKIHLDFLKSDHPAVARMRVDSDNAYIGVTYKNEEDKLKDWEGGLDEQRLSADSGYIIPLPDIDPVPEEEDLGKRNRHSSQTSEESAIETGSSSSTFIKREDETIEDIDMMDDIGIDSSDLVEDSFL

Row | GPR17 Fold Induction (Over Vehicle; 3 μM) [1] | IC50 (PDGFRα) | Compound
1 | 2.46 | > 10 µM | C[C@@H](OC(=O)N1CCN(c2cnc3cc(-c4cnn(C)c4)ncn23)CC1)c1ccccc1 [Compound 115, (R)-1-phenylethyl 4-(7-(1-methyl-1H-pyrazol-4-yl)imidazo[1,2-c]pyrimidin-3-yl)piperazine-1-carboxylate]
2 | 1.47 | > 10 µM | Cn1cc(-c2ccc3c(NCCCNc4ncc(Cc5ccccc5)cn4)cnn3c2)cn1 [Compound 124, N^1-(5-benzylpyrimidin-2-yl)-N^3-(6-(1-methyl-1H-pyrazol-4-yl)pyrazolo[1,5-a]pyridin-3-yl)propane-1,3-diamine]
3 | 2.23 | 6.72 µM | CN(Cc1ccccc1)C(=O)C1CCN(c2cnn3cc(-c4cnn(C)c4)ccc23)CC1 [Compound 147, N-benzyl-N-methyl-1-(6-(1-methyl-1H-pyrazol-4-yl)pyrazolo[1,5-a]pyridin-3-yl)piperidine-4-carboxamide]
4 | 0.85 | > 10 µM | Cn1cc(-c2ccn3c(N4CCC(C(=O)OC(C)(C)C)C4)cnc3n2)cn1 (stereo not drawn) [Compound 110, tert-butyl 1-(7-(1-methyl-1H-pyrazol-4-yl)imidazo[1,2-a]pyrimidin-3-yl)pyrrolidine-3-carboxylate]
5 | 1.27 | 2.42 µM | Cn1cc(-c2ccc3c(N4CCCN(C(=O)OC(C)(C)C)CC4)cnn3c2)cn1 [Compound 40, tert-butyl 4-(6-(1-methyl-1H-pyrazol-4-yl)pyrazolo[1,5-a]pyridin-3-yl)-1,4-diazepane-1-carboxylate]
6 | 1.45 | > 10 µM | CN(CCCNc1ncc(Cc2ccccc2)cn1)c1cnn2cc(-c3cnn(C)c3)ccc12 [Compound 128, N^1-(5-benzylpyrimidin-2-yl)-N^3-methyl-N^3-(6-(1-methyl-1H-pyrazol-4-yl)pyrazolo[1,5-a]pyridin-3-yl)propane-1,3-diamine]
7 | 6.48 | 2.47 µM | CCC(O)c1cnc(N2CCN(c3cnn4cc(-c5cnn(C)c5)ccc34)CC2)nc1 (stereo not drawn) [Compound 287, 1-(2-{4-[6-(1-methyl-1H-pyrazol-4-yl)pyrazolo[1,5-a]pyridin-3-yl]piperazin-1-yl}pyrimidin-5-yl)propan-1-ol]
8 | 3.04 | 0.937 µM | Cn1cc(-c2ccc3c(N4CCN(c5ncc(C(N)c6ccc(F)cc6)cn5)CC4)cnn3c2)cn1 (stereo not drawn) [Compound 246, 1-(4-fluorophenyl)-1-(2-{4-[6-(1-methyl-1H-pyrazol-4-yl)pyrazolo[1,5-a]pyridin-3-yl]piperazin-1-yl}pyrimidin-5-yl)methanamine]
9 | 0.99 | 5.05 µM | Cn1cc(-c2ccc3c(C4CCC(C(=O)OCc5ccccc5)C4)cnn3c2)cn1 (stereo not drawn) [Compound 137]
10 | 1.24 | 3.55 µM | Cn1cc(-c2ccc3c(N4CC=C(c5ncc(Cc6ccccc6)cn5)CC4)cnn3c2)cn1 [Compound 300, 3-(4-(5-benzylpyrimidin-2-yl)-3,6-dihydropyridin-1 (2H)-yl)-6-(1-methyl-1H-pyrazol-4-yl)pyrazolo[1,5-a]pyridine]
11 | 1.73 | 6.97 µM | Cn1cc(-c2ccc3c(N4CCC(C(=O)OCc5ccccc5)CC4)cnn3c2)cn1 [Compound 145, benzyl 1-(6-(1-methyl-1H-pyrazol-4-yl)pyrazolo[1,5-a]pyridin-3-yl)piperidine-4-carboxylate]
12 | 1.40 | 2.8 µM | Cc1cn(-c2ccn3c(N4CCN(C(=O)OC(C)(C)C)CC4)cnc3n2)cn1 [Compound 104, tert-butyl 4-(7-(4-methyl-1H-imidazol-1-yl)imidazo[1,2-a]pyrimidin-3-yl)piperazine-1-carboxylate]
